“And” between values parts separate entries of the source, which are not always exact repeats. Equal entries are not always repeated. Structures can show the parent of a compound that is named as a salt.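 Protocol summary: plate cells (96-well), add compound at 5 concentrations, incubate 48 h, interpolate endpoints linearly. Here, GI50 denotes the concentration required for 50% inhibition of growth.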 The source made the active and inactive calls. Rule as the data show it: active = GI50 up to about 1.1 µM and inactive = higher.
Key:
Assay in all cases: NCI tumour cell line growth inhibition, 48 h
[1] = system: HCC 2998
[2] = system: SN12C
[3] = system: HL-60
[4] = system: RPMI-8226
[5] = system: HOP-18
[6] = system: OVCAR-8
[7] = system: CCRF-CEM
[8] = system: SK-MEL-5
[9] = system: NCI-H460
[10] = system: ACHN
[11] = system: DLD-1
[12] = system: XF498
[13] = system: LOX IMVI
[14] = system: SF-539
[15] = system: MOLT-4
[16] = system: HCT-15
[17] = system: A549
[18] = system: K562
[19] = system: RXF 393
[20] = system: SK-MEL-2

| Structure (SMILES) | GI50 [1] | GI50 [2] | GI50 [3] | GI50 [4] | GI50 [5] | GI50 [6] | GI50 [7] | GI50 [8] | GI50 [9] | GI50 [10] | GI50 [11] | GI50 [12] | GI50 [13] | GI50 [14] | GI50 [15] | GI50 [16] [µM] | GI50 [17] | GI50 [18] | GI50 [19] | GI50 [20] |
| --- | --- | --- | --- | --- | --- | --- | --- | --- | --- | --- | --- | --- | --- | --- | --- | --- | --- | --- | --- | --- |
| Nc1ccc2cc3ccc(N)cc3nc2c1 [PROFLAVINE SULFATE] | 794 nM (active) and 1.09 µM (active) | 843 nM (active) and 1.04 µM (active) | 2.62 µM (inactive) and 1.67 µM (inactive) | 1.58 µM (inactive) and 1.43 µM (inactive) | 2.76 µM (inactive) | 1.09 µM (active) and 995 nM (active) | 508 nM (active) and 601 nM (active) | 1.61 µM (inactive) and 1.38 µM (inactive) | 528 nM (active) and 485 nM (active) | 789 nM (active) and 537 nM (active) | 0.771 µM (active) | 1.53 µM (inactive) | 789 nM (active) and 764 nM (active) | 1.26 µM (inactive) and 1.16 µM (inactive) | 338 nM (active) and 284 nM (active) |  |  |  |  |  |
| CC1CC2C3CC(F)C4=CC(=O)C=CC4(C)C3(F)C(O)CC2(C)C1(O)C(=O)COC(=O)C(C)(C)C (stereo not given) | > 100 µM (inactive) |  | > 100 µM (inactive) | 44.4 µM (inactive) |  |  | 0.0203 µM (active) | > 100 µM (inactive) | 47 µM (inactive) | 32.7 µM (inactive) | > 100 µM (inactive) | > 100 µM (inactive) | > 100 µM (inactive) | 87.5 µM (inactive) | 66.2 µM (inactive) | > 100 | 54.6 µM (inactive) | > 100 µM (inactive) | 18.7 µM (inactive) | > 100 µM (inactive) |
| O=C(O)CN1CCCC(Cc2c[nH]c3ccccc23)C1 (stereo not given) | > 100 µM (inactive) |  |  |  |  | > 100 µM (inactive) |  | > 100 µM (inactive) |  | > 100 µM (inactive) |  |  | > 100 µM (inactive) | > 100 µM (inactive) |  | > 100 | > 100 µM (inactive) | 40.6 µM (inactive) | > 100 µM (inactive) | > 100 µM (inactive) |
| CC(=O)N/C(=C\c1ccc(/C=C(\NC(C)=O)C2=NC3C(=O)c4ccccc4C(=O)C3N2)cc1)C1=NC2C(=O)c3ccccc3C(=O)C2N1 (stereo not given) |  | 22.6 µM (inactive) | 3.96 µM (inactive) | 5.05 µM (inactive) | 71.3 µM (inactive) | 22.4 µM (inactive) | 0.865 µM (active) | 3.4 µM (inactive) | 12.8 µM (inactive) | 4.1 µM (inactive) | 7.71 µM (inactive) | > 100 µM (inactive) | 6.92 µM (inactive) | 76.7 µM (inactive) | 2.44 µM (inactive) | 9.14 | 2.34 µM (inactive) | 19.3 µM (inactive) | 13.2 µM (inactive) |  |
| O=C(O)c1cccc2cccc(-c3c4ccc(=O)cc-4oc4cc(O)ccc34)c12 | > 100 µM (inactive) | > 100 µM (inactive) | 62.7 µM (inactive) | 32.6 µM (inactive) |  | > 100 µM (inactive) | 69.2 µM (inactive) | > 100 µM (inactive) | > 100 µM (inactive) | > 100 µM (inactive) |  |  | > 100 µM (inactive) | > 100 µM (inactive) | 27.3 µM (inactive) | > 100 | > 100 µM (inactive) | 31 µM (inactive) | > 100 µM (inactive) | > 100 µM (inactive) |
| O=C1c2ccccc2C(=O)c2c1ccc1c2N=C(c2ccc(F)cc2)CC(c2ccc(Cl)c(Cl)c2)N1 (stereo not given) | 13.6 µM (inactive) | 17.3 µM (inactive) | 3.94 µM (inactive) | 3.15 µM (inactive) |  | 13.4 µM (inactive) | 2.13 µM (inactive) | 15.6 µM (inactive) | 16.9 µM (inactive) | 13.9 µM (inactive) | 12.9 µM (inactive) |  | 3.94 µM (inactive) | 19.3 µM (inactive) | 7.43 µM (inactive) | 5.81 | 18.4 µM (inactive) | 7.16 µM (inactive) |  | 14 µM (inactive) |
| CSc1sc(=S)sc1SC | > 100 µM (inactive) | > 100 µM (inactive) | > 31.6 µM (inactive) | > 100 µM (inactive) | > 100 µM (inactive) | > 100 µM (inactive) | > 100 µM (inactive) | > 100 µM (inactive) | > 100 µM (inactive) |  | > 100 µM (inactive) | > 100 µM (inactive) | > 100 µM (inactive) | > 100 µM (inactive) | > 100 µM (inactive) | > 100 | > 100 µM (inactive) | > 100 µM (inactive) | > 100 µM (inactive) | > 31.6 µM (inactive) |
| O=C1c2cccc3cc4ccccc4c(c23)C(=O)N1CCNCCN1C(=O)c2cccc3cc4ccccc4c(c23)C1=O | 0.912 µM (active) | 0.306 µM (active) | 0.178 µM (active) | 0.718 µM (active) | 0.231 µM (active) | 0.357 µM (active) | 0.199 µM (active) | 0.504 µM (active) | 0.0541 µM (active) |  | 0.714 µM (active) | 0.254 µM (active) | 0.233 µM (active) | 0.773 µM (active) | 0.097 µM (active) | 0.309 | 0.186 µM (active) | 0.301 µM (active) | 0.525 µM (active) | 1.58 µM (inactive) |
| CCC/C=C/C=C\C(=O)O[C@@H]1[C@@H](C)[C@]2(O)[C@@H]3C=C(C)C(=O)[C@H]3CC(COC(C)=O)=C[C@H]2[C@@H]2C(C)(C)[C@]12OC(C)=O | 14.8 µM (inactive) | 40.3 µM (inactive) | 2.33 µM (inactive) | 22.9 µM (inactive) | 28 µM (inactive) | 40.7 µM (inactive) | 3.56 µM (inactive) | 16.4 µM (inactive) | 1.61 µM (inactive) |  | 16.7 µM (inactive) | 7.29 µM (inactive) | 16.8 µM (inactive) | 41.4 µM (inactive) | 10.2 µM (inactive) | 28.6 | 4.59 µM (inactive) | 2.49 µM (inactive) | 47.5 µM (inactive) | 43.3 µM (inactive) |
| CCOC(=O)CNC(=O)N(CC)C12CC3CC(CC(C3)C1)C2 | 158 µM (inactive) | 147 µM (inactive) | 107 µM (inactive) | 115 µM (inactive) | 179 µM (inactive) | 150 µM (inactive) | 135 µM (inactive) | 104 µM (inactive) | 154 µM (inactive) |  | 34.7 µM (inactive) | 125 µM (inactive) | 115 µM (inactive) | 123 µM (inactive) | 119 µM (inactive) | 115 | 166 µM (inactive) | 122 µM (inactive) | 152 µM (inactive) | 103 µM (inactive) |
| NC(=O)Nc1cc(O)ccc1/N=N/c1ccc(S(=O)(=O)Nc2ccccn2)cc1 | > 100 µM (inactive) | > 100 µM (inactive) | > 100 µM (inactive) | > 100 µM (inactive) | > 100 µM (inactive) | > 100 µM (inactive) | > 100 µM (inactive) | > 100 µM (inactive) | > 100 µM (inactive) | > 100 µM (inactive) |  | > 100 µM (inactive) | > 100 µM (inactive) | > 100 µM (inactive) | 5.9 µM (inactive) | > 100 | > 100 µM (inactive) | > 100 µM (inactive) |  | > 100 µM (inactive) |
| COc1ccc(N2C(=O)C3c4[nH]c5cc(C)ccc5c4C4CCC(C(C)(C)C)CC4C3C2=O)cc1 (stereo not given) | > 10 µM (inactive) | > 10 µM (inactive) | > 10 µM (inactive) | > 10 µM (inactive) |  | 4.88 µM (inactive) | > 10 µM (inactive) | > 10 µM (inactive) | 7.62 µM (inactive) | > 10 µM (inactive) |  |  | 7.24 µM (inactive) | 4.19 µM (inactive) | > 10 µM (inactive) | > 10 | > 10 µM (inactive) | > 10 µM (inactive) | > 10 µM (inactive) | > 10 µM (inactive) |
| NC(=S)N/N=C/c1ccc(OC(=O)COc2ccccc2Cl)cn1 | 36.6 µM (inactive) | 30.5 µM (inactive) | 18.4 µM (inactive) | 46.3 µM (inactive) | 39.3 µM (inactive) | 15.7 µM (inactive) | 6.1 µM (inactive) | 24.8 µM (inactive) | 35.2 µM (inactive) |  | 33 µM (inactive) | 40 µM (inactive) | 27.6 µM (inactive) | 14.3 µM (inactive) | 16.3 µM (inactive) | 39.5 | 53.6 µM (inactive) | 23.1 µM (inactive) | > 37.5 µM (inactive) | 42.3 µM (inactive) |
